Tests used:
Experiment in all cases: Test of herbicidal activities (greenhouse pot method)
Assay type in all cases: in vivo
Conditions in all cases: single dose 300 g ai./h, treated before/after germination, 15 days later, greenhouse pot
Amaranthus retroflexus = tested on: Amaranthus retroflexus
Method in brief: (§1)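 Weeds were sown in soil-filled pots at 15–30 °C and treated once by spray tower at 300 g ai./h, either before emergence or post-emergence at the 2-leaf stage, in three replicates with an untreated control. Symptoms were scored 15 days later into five classes from A (≥90%) to E (<50%).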

Echinochloa crusgalli = tested on: Echinochloa crusgalli
Method in brief: as §1

Digiatria sanguinalis = tested on: Digiatria sanguinalis
Method in brief: as §1

Brassica juncea = tested on: Brassica juncea
Method in brief: as §1

Chenopodium album = tested on: Chenopodium album
Method in brief: as §1

Setaria viridis = tested on: Setaria viridis
Method in brief: as §1

Structure (SMILES) | Herbicidal activity Amaranthus retroflexus (inhibition level) (Amaranthus retroflexus) | Herbicidal activity Echinochloa crusgalli (inhibition level) (Echinochloa crusgalli) | Herbicidal activity Digiatria sanguinalis (inhibition level) (Digiatria sanguinalis) | Herbicidal activity Brassica juncea (inhibition level) (Brassica juncea) | Herbicidal activity Chenopodium album (inhibition level) (Chenopodium album) | Herbicidal activity Setaria viridis (inhibition level) (Setaria viridis)
CC[S+]([O-])c1nc2cc(-n3nc(C)n(C(F)F)c3=O)c(Br)cc2s1 (stereo not drawn) [Compound 109] | B (80 ≦ B < 90%) | A (90 ≦ A ≦ 100%) | B (80 ≦ B < 90%) | A (90 ≦ A ≦ 100%) | A (90 ≦ A ≦ 100%) | B (80 ≦ B < 90%)
CCC[S+]([O-])c1nc2cc(-n3nc(C)n(C(F)F)c3=O)c(Br)cc2s1 (stereo not drawn) [Compound 110] | B (80 ≦ B < 90%) | A (90 ≦ A ≦ 100%) | B (80 ≦ B < 90%) | B (80 ≦ B < 90%) | B (80 ≦ B < 90%) | C (60 ≦ C < 80%)
CCOC(=O)C[S+]([O-])c1nc2cc(-n3nc(C)n(C(F)F)c3=O)c(Br)cc2s1 (stereo not drawn) [Compound 111] | A (90 ≦ A ≦ 100%) | A (90 ≦ A ≦ 100%) | C (60 ≦ C < 80%) | B (80 ≦ B < 90%) | E (E < 50%) | C (60 ≦ C < 80%)
CCCCCC[S+]([O-])c1nc2cc(-n3nc(C)n(C(F)F)c3=O)c(F)cc2s1 (stereo not drawn) [Compound 112] | B (80 ≦ B < 90%) | B (80 ≦ B < 90%) | A (90 ≦ A ≦ 100%) | C (60 ≦ C < 80%) | B (80 ≦ B < 90%) | B (80 ≦ B < 90%)
CC[S+]([O-])c1nc2cc(-n3nc(C)n(C(F)F)c3=O)c(F)cc2s1 (stereo not drawn) [Compound 113] | B (80 ≦ B < 90%) | B (80 ≦ B < 90%) | C (60 ≦ C < 80%) | A (90 ≦ A ≦ 100%) | D (50 ≦ D < 60%) | C (60 ≦ C < 80%)
CCCCCC[S+]([O-])c1nc2cc(-n3nc(C)n(C(F)F)c3=O)c(Cl)cc2s1 (stereo not drawn) [Compound 114] | A (90 ≦ A ≦ 100%) | B (80 ≦ B < 90%) | A (90 ≦ A ≦ 100%) | A (90 ≦ A ≦ 100%) | A (90 ≦ A ≦ 100%) | B (80 ≦ B < 90%)
CC[S+]([O-])c1nc2cc(-n3nc(C)n(C(F)F)c3=O)c(Cl)cc2s1 (stereo not drawn) [Compound 115] | B (80 ≦ B < 90%) | C (60 ≦ C < 80%) | B (80 ≦ B < 90%) | A (90 ≦ A ≦ 100%) | D (50 ≦ D < 60%) | B (80 ≦ B < 90%)
CCOC(=O)C(C)[S+]([O-])c1nc2cc(-n3nc(C)n(C(F)F)c3=O)c(Br)cc2s1 (stereo not drawn) [Compound 116] | B (80 ≦ B < 90%) | D (50 ≦ D < 60%) | C (60 ≦ C < 80%) | A (90 ≦ A ≦ 100%) | B (80 ≦ B < 90%) | B (80 ≦ B < 90%)
C=CC[S+]([O-])c1nc2cc(-n3nc(C)n(C(F)F)c3=O)c(Br)cc2s1 (stereo not drawn) [Compound 117] | C (60 ≦ C < 80%) | C (60 ≦ C < 80%) | B (80 ≦ B < 90%) | C (60 ≦ C < 80%) | B (80 ≦ B < 90%) | E (E < 50%)
CCOC(=O)C(C)[S+]([O-])c1nc2cc(-n3nc(C)n(C(F)F)c3=O)c(F)cc2s1 (stereo not drawn) [Compound 118] | A (90 ≦ A ≦ 100%) | D (50 ≦ D < 60%) | C (60 ≦ C < 80%) | D (50 ≦ D < 60%) | B (80 ≦ B < 90%) | C (60 ≦ C < 80%)
Cc1nn(-c2cc3nc([S+](C)[O-])sc3cc2F)c(=O)n1C(F)F (stereo not drawn) [Compound 119] | B (80 ≦ B < 90%) | E (E < 50%) | C (60 ≦ C < 80%) | E (E < 50%) | B (80 ≦ B < 90%) | C (60 ≦ C < 80%)
CCCC[S+]([O-])c1nc2cc(-n3nc(C)n(C(F)F)c3=O)c(F)cc2s1 (stereo not drawn) [Compound 120] | C (60 ≦ C < 80%) | D (50 ≦ D < 60%) | B (80 ≦ B < 90%) | A (90 ≦ A ≦ 100%) | B (80 ≦ B < 90%) | B (80 ≦ B < 90%)
CCC[S+]([O-])c1nc2cc(-n3nc(C)n(C(F)F)c3=O)c(F)cc2s1 (stereo not drawn) [Compound 121] | D (50 ≦ D < 60%) | E (E < 50%) | C (60 ≦ C < 80%) | C (60 ≦ C < 80%) | A (90 ≦ A ≦ 100%) | D (50 ≦ D < 60%)
CCOC(=O)CSc1nc2cc(-n3nc(C(F)(F)F)n(C(F)F)c3=O)c(F)cc2s1 [Compound 122] | E (E < 50%) | C (60 ≦ C < 80%) | E (E < 50%) | E (E < 50%) | E (E < 50%) | E (E < 50%)
C=CCSc1nc2cc(-n3nc(C(F)(F)F)n(C(F)F)c3=O)c(F)cc2s1 [Compound 123] | A (90 ≦ A ≦ 100%) | D (50 ≦ D < 60%) | B (80 ≦ B < 90%) | D (50 ≦ D < 60%) | A (90 ≦ A ≦ 100%) | B (80 ≦ B < 90%)
CCOC(=O)C(C)Sc1nc2cc(-n3nc(C(F)(F)F)n(C(F)F)c3=O)c(Cl)cc2s1 (stereo not drawn) [Compound 124] | B (80 ≦ B < 90%) | D (50 ≦ D < 60%) | E (E < 50%) | B (80 ≦ B < 90%) | B (80 ≦ B < 90%) | A (90 ≦ A ≦ 100%)
CSc1nc2cc(-n3nc(C(F)(F)F)n(C(F)F)c3=O)c(Cl)cc2s1 [Compound 125] | A (90 ≦ A ≦ 100%) | B (80 ≦ B < 90%) | B (80 ≦ B < 90%) | C (60 ≦ C < 80%) | B (80 ≦ B < 90%) | C (60 ≦ C < 80%)
CCCCSc1nc2cc(-n3nc(C(F)(F)F)n(C(F)F)c3=O)c(Cl)cc2s1 [Compound 126] | B (80 ≦ B < 90%) | B (80 ≦ B < 90%) | A (90 ≦ A ≦ 100%) | A (90 ≦ A ≦ 100%) | B (80 ≦ B < 90%) | C (60 ≦ C < 80%)
CCOC(=O)CSc1nc2cc(-n3nc(C(F)(F)F)n(C(F)F)c3=O)c(Br)cc2s1 [Compound 127] | B (80 ≦ B < 90%) | C (60 ≦ C < 80%) | B (80 ≦ B < 90%) | B (80 ≦ B < 90%) | B (80 ≦ B < 90%) | D (50 ≦ D < 60%)
C=CCSc1nc2cc(-n3nc(C(F)(F)F)n(C(F)F)c3=O)c(Br)cc2s1 [Compound 128] | A (90 ≦ A ≦ 100%) | A (90 ≦ A ≦ 100%) | C (60 ≦ C < 80%) | A (90 ≦ A ≦ 100%) | B (80 ≦ B < 90%) | D (50 ≦ D < 60%)
CCCSc1nc2cc(-n3nc(C(F)(F)F)n(C(F)F)c3=O)c(Br)cc2s1 [Compound 129] | A (90 ≦ A ≦ 100%) | A (90 ≦ A ≦ 100%) | A (90 ≦ A ≦ 100%) | C (60 ≦ C < 80%) | A (90 ≦ A ≦ 100%) | C (60 ≦ C < 80%)
